Consider four compounds from publication PMC3070790 (Bioorganic & medicinal chemistry letters, 2011).

Assay [1] relates to primary rat cerebellar neurons. It is filed as cell-based.
For assay [2], the target named is T1, light chain of BoNT serotype A (LC/A) (Clostridium botulinum, UniProt P0DPI1). It is filed as biochemical.
For assay [3], the target named is T1, light chain of BoNT serotype A (LC/A). The settings on record: cited from earlier work.

Entries after “also recorded” stand apart in the source; their conditions may differ. Read-outs that look alike come from different tables or passages of the source.

T1 sequence (P0DPI1 2-448 limits assumed): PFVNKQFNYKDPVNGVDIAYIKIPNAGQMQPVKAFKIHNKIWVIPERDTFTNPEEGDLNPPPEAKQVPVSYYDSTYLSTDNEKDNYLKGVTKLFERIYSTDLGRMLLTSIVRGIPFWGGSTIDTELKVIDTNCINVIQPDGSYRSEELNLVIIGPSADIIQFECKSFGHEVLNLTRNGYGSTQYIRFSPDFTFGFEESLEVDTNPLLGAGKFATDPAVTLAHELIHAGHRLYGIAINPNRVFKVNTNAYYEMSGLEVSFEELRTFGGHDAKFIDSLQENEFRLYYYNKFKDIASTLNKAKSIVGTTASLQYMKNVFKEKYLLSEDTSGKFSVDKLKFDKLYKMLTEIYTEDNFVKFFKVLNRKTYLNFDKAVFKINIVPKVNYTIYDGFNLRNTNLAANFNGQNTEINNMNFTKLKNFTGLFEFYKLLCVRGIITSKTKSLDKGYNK

In the case of `C=C(C)[C@@H]1CC[C@]2(COC(=O)CCC(=O)O)CC[C@]3(C)[C@H](CC[C@@H]4[C@@]5(C)CC[C@H](O)C(C)(C)[C@@H]5CC[C@]43C)[C@@H]12` [Compound 7, 28-hemisuccinylbetulin], the “protection against BoNT/A (intracellular SNAP-25 cleavage)” value in assay [1] is “did not show any protection; also recorded: did not show inhibitory activity; also recorded: did not demonstrate protection”. For the same compound, in assay [2], the Ki result is “sub-micromolar” and the mechanism of inhibition result is “competitive”.

For `C=C(C)[C@@H]1CC[C@]2(COC(=O)COc3cc(C(C)C)ccc3C)CC[C@]3(C)[C@H](CC[C@@H]4[C@@]5(C)CC[C@H](O)C(C)(C)[C@@H]5CC[C@]43C)[C@@H]12` [Compound 8, betulinyl 28-carboxymethoxycarvacrolate], in assay [2], the “fold less potent than 7 (Ki)” value was “about 16 fold” and the mechanism of inhibition entry is reported as “competitive”.

In the case of `C=C(C)[C@@H]1CC[C@]2(C(=O)O)CC[C@]3(C)[C@H](CC[C@@H]4[C@@]5(C)CC[C@H](O)C(C)(C)[C@@H]5CC[C@]43C)[C@@H]12` [Compound 18, betulinic acid], in assay [2], the “fold less potent than 7 (Ki)” value is listed as about 18 fold and the mechanism of inhibition entry is “competitive”.

On to `O=C(/C=C/c1ccc(O)c(O)c1)O[C@H](C(=O)O)[C@H](OC(=O)/C=C/c1ccc(O)c(O)c1)C(=O)O` [D-chicoric acid], for which, in assay [3], the mechanism of inhibition result is on record as “noncompetitive partial inhibition”.
